Experimental data taken from patent US7250442B2, “Dihydroindol-2-one derivatives as steroid hormone nuclear receptor modulators” (Eli Lilly and Company, priority 2003, dated 2007).

Target: T1, human MR (Homo sapiens, UniProt P08235)
T1 construct: The full length human MR gene is cloned from a human kidney or human brain cDNA library; made in house; host or cells: Sf9 insect cells (baculovirus, pAcHLT transfer vector)
T1 sequence (P08235 1-984): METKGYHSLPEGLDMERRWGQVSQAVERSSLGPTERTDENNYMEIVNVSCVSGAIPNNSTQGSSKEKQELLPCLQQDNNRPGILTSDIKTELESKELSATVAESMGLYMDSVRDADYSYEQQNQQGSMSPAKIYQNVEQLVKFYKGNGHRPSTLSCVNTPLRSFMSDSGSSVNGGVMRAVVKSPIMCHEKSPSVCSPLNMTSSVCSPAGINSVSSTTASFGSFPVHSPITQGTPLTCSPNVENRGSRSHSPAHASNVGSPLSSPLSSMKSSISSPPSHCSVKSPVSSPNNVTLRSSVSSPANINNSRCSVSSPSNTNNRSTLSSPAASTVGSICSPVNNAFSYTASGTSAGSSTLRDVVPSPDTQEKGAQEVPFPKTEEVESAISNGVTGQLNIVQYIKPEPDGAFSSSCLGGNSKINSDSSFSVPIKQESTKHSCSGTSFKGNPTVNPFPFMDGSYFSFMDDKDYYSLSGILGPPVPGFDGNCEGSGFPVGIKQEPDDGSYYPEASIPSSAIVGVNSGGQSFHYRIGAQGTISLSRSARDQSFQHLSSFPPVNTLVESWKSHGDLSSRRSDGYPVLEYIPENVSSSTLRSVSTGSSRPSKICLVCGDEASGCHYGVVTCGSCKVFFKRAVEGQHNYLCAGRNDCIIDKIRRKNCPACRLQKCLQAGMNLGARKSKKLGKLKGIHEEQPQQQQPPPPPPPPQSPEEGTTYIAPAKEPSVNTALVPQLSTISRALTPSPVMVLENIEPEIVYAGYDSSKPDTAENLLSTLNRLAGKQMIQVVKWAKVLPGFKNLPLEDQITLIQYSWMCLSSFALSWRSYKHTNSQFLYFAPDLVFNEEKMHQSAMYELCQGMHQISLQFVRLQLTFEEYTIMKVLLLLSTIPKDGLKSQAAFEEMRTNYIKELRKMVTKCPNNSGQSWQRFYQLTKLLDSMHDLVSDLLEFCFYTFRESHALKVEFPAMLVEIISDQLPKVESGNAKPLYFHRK
Assay: Mineralocorticoid Receptor Binding Assay ([3H]-aldosterone displacement)
Conditions: full length human MR expressed in Sf9 cells, 0.5 nM [3H]-aldosterone
In short: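 Full-length human MR expressed in Sf9 cells; lysate (20-25 μg protein) incubated with 0.5 nM [3H]-aldosterone and test compound in molybdate/Tris/phosphate/glycerol buffer pH 7.5, 16 h at 4 °C. Bound ligand measured by filtration and scintillation counting; IC50 converted to Ki via Cheng-Prusoff.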

Ki, ≤ 500 nM:
Cc1cc(C2(c3cc(C)c(O)c(C)c3)C(=O)N(Cc3ccc(F)cc3)c3ccccc32)cc(C)c1O [Example 2]
Cc1cc(C2(c3cc(C)c(O)c(C)c3)C(=O)N(Cc3ccc(C(C)(C)C)cc3)c3ccccc32)cc(C)c1O [Example 7, 1-(4-tert-Butyl-benzyl)-3,3-bis-(4-hydroxy-3,5-dimethyl-phenyl)-1,3-dihydro-indol-2-one]
Cc1cc(C2(c3cc(C)c(O)c(C)c3)C(=O)N(Cc3cccc4ccccc34)c3ccccc32)cc(C)c1O [Example 10, 3,3-Bis-(4-hydroxy-3,5-dimethyl-phenyl)-1-naphthalen-1-ylmethyl-1,3-dihydro-indol-2-one]
COc1ccc2c(c1)C(c1cc(C)c(O)c(C)c1)(c1cc(C)c(O)c(C)c1)C(=O)N2Cc1ccccc1 [Example 16, 1-Benzyl-3,3-bis-(4-hydroxy-3,5-dimethyl-phenyl)-5-methoxy-1,3-dihydro-indol-2-one]
Cc1cc(C2(c3ccc(O)cc3)C(=O)N(Cc3ccccc3)c3ccccc32)cc(C)c1O (centres unmarked) [Example 29, 1-Benzyl-3-(4-hydroxy-3,5-dimethyl-phenyl)-3-(4-hydroxy-phenyl)-1,3-dihydro-indol-2-one]
COc1ccccc1C(=O)CN1C(=O)C(c2cc(C)c(O)c(C)c2)(c2cc(C)c(O)c(C)c2)c2ccccc21 [Example 44, 3,3-Bis-(4-hydroxy-3,5-dimethyl-phenyl)-1-[2-(2-methoxy-phenyl)-2-oxo-ethyl]-1,3-dihydro-indol-2-one]
COc1cccc(C(=O)CN2C(=O)C(c3cc(C)c(O)c(C)c3)(c3cc(C)c(O)c(C)c3)c3ccccc32)c1 [Example 45, 3,3-Bis-(4-hydroxy-3,5-dimethyl-phenyl)-1-[2-(3-methoxy-phenyl)-2-oxo-ethyl]-1,3-dihydro-indol-2-one]
COc1ccc(C(=O)CN2C(=O)C(c3cc(C)c(O)c(C)c3)(c3cc(C)c(O)c(C)c3)c3ccccc32)cc1 [Example 46, 3,3-Bis-(4-hydroxy-3,5-dimethyl-phenyl)-1-[2-(4-methoxy-phenyl)-2-oxo-ethyl]-1,3-dihydro-indol-2-one]
COc1ccc(OC)c(C(=O)CN2C(=O)C(c3cc(C)c(O)c(C)c3)(c3cc(C)c(O)c(C)c3)c3ccccc32)c1 [Example 49, 1-[2-(2,5-Dimethoxy-phenyl)-2-oxo-ethyl]-3,3-bis-(4-hydroxy-3,5-dimethyl-phenyl)-1,3-dihydro-indol-2-one]
Cc1cc(C2(c3cc(C)c(O)c(C)c3)C(=O)N(Cc3ccccc3C#N)c3ccccc32)cc(C)c1O [Example 51, 2-[3,3-Bis-(4-hydroxy-3,5-dimethyl-phenyl)-2-oxo-2,3-dihydro-indol-1-ylmethyl]-benzonitrile]
Cc1cc(C2(c3cc(C)c(O)c(C)c3)C(=O)N(Cc3ccc(Cl)c(Cl)c3)c3ccccc32)cc(C)c1O [Example 52, 1-(3,4-Dichloro-benzyl)-3,3-bis-(4-hydroxy-3,5-dimethyl-phenyl)-1,3-dihydro-indol-2-one]
COC(=O)c1cccc(CN2C(=O)C(c3cc(C)c(O)c(C)c3)(c3cc(C)c(O)c(C)c3)c3ccccc32)c1 [Example 55, 3-[3,3-Bis-(4-hydroxy-3,5-dimethyl-phenyl)-2-oxo-2,3-dihydro-indol-1-ylmethyl]-benzoic acid methyl ester]
Cc1cc(C2(c3cc(C)c(O)c(C)c3)C(=O)N(Cc3ccc(C(F)(F)F)cc3)c3ccccc32)cc(C)c1O [Example 57, 3,3-Bis-(4-hydroxy-3,5-dimethyl-phenyl)-1-(4-trifluoromethyl-benzyl)-1,3-dihydro-indol-2-one]
Cc1cc(C2(c3cc(C)c(O)c(C)c3)C(=O)N(Cc3cccc(Cl)c3)c3ccccc32)cc(C)c1O [Example 60, 1-(3-Chloro-benzyl)-3,3-bis-(4-hydroxy-3,5-dimethyl-phenyl)-1,3-dihydro-indol-2-one]
Cc1cc(C2(c3cc(C)c(O)c(C)c3)C(=O)N(Cc3cccc(C(F)(F)F)c3)c3ccccc32)cc(C)c1O [Example 61, 3,3-Bis-(4-hydroxy-3,5-dimethyl-phenyl)-1-(3-trifluoromethyl-benzyl)-1,3-dihydro-indol-2-one]
Cc1cc(C2(c3cc(C)c(O)c(C)c3)C(=O)N(Cc3ccc(Br)cc3F)c3ccccc32)cc(C)c1O [Example 81, 1-(4-Bromo-2-fluoro-benzyl)-3,3-bis-(4-hydroxy-3,5-dimethyl-phenyl)-1,3-dihydro-indol-2-one]
Cc1cc(C2(c3cc(C)c(O)c(C)c3)C(=O)N(Cc3ccc(O)cc3)c3ccccc32)cc(C)c1O [Example 88, 1-(4-Hydroxy-benzyl)-3,3-bis-(4-hydroxy-3,5-dimethyl-phenyl)-1,3-dihydro-indol-2-one]
Cc1nc(CN2C(=O)C(c3cc(C)c(O)c(C)c3)(c3cc(C)c(O)c(C)c3)c3ccccc32)cs1 [Example 89, 3,3-Bis-(4-hydroxy-3,5-dimethyl-phenyl)-1-(2-methyl-thiazol-4-ylmethyl)-1,3-dihydro-indol-2-one]
Cc1ccc2c(c1)C(c1cc(C)c(O)c(C)c1)(c1cc(C)c(O)c(C)c1)C(=O)N2Cc1csc(C)n1 [Example 93, 3,3-Bis-(4-hydroxy-3,5-dimethyl-phenyl)-5-methyl-1-(2-methyl-thiazol-4-ylmethyl)-1,3-dihydro-indol-2-one]
Cc1cc(C2(c3cc(C)c(O)c(C)c3)C(=O)N(Cc3ccccn3)c3ccccc32)cc(C)c1O [Example 100, 3,3-Bis-(4-hydroxy-3,5-dimethyl-phenyl)-1-pyridin-2-ylmethyl-1,3-dihydro-indol-2-one]
Cc1cc(C2(c3cc(C)c(O)c(C)c3)C(=O)N(CC3CC3)c3ccccc32)cc(C)c1O [Example 105, 1-Cyclopropylmethyl-3,3-bis-(4-hydroxy-3,5-dimethyl-phenyl)-1,3-dihydro-indol-2-one]
Cc1cc(C2(c3cc(C)c(O)c(C)c3)C(=O)N(Cc3c(C)cccc3C)c3ccccc32)cc(C)c1O [Example 107, 1-(2,6-Dimethyl-benzyl)-3,3-bis-(4-hydroxy-3,5-dimethyl-phenyl)-1,3-dihydro-indol-2-one]
Cc1cc(C2(c3cc(C)c(O)c(C)c3)C(=O)N(Cc3cc(C(F)(F)F)ccc3F)c3ccccc32)cc(C)c1O [Example 112, 1-(2-Fluoro-5-trifluoromethyl-benzyl)-3,3-bis-(4-hydroxy-3,5-dimethyl-phenyl)-1,3-dihydro-indol-2-one]
Cc1cc(C2(c3cc(C)c(O)c(C)c3)C(=O)N(C3CCCC3)c3ccccc32)cc(C)c1O [Example 114, 1-Cyclopentyl-3,3-bis-(4-hydroxy-3,5-dimethyl-phenyl)-1,3-dihydro-indol-2-one]
Cc1cc(C2(c3cc(C)c(O)c(C)c3)C(=O)N(Cc3ccc(N)cc3)c3ccccc32)cc(C)c1O [Example 117, 11-(4-Amino-benzyl)-3,3-bis-(4-hydroxy-3,5-dimethyl-phenyl)-1,3-dihydro-indol-2-one]
Cc1cc(C2(c3cc(C)c(O)c(C)c3)C(=O)N(Cc3cccc(N)c3)c3ccccc32)cc(C)c1O [Example 118, 1-(3-Amino-benzyl)-3,3-bis-(4-hydroxy-3,5-dimethyl-phenyl)-1,3-dihydro-indol-2-one]
